These results are taken from US20240124456A1, “AZA-ERGOLINE DERIVATIVE AND PREPARATION METHOD THEREFOR AND APPLICATION THEREOF” (SHANGHAITECH UNIVERSITY, priority 2021, published 2024).

Read-outs that look alike come from different tables or passages of the source.

The target of data set [1] is T1, 5-HT2A receptor (Homo sapiens (Human), UniProt P28223). Nature of the data set: Radioligand competition binding, affinity for 5-HT2A receptor ([3H]-ketanserin). The protocol: The affinity of the compounds of the present invention for the 5-HT2A receptors was determined by the method of radioligand competition experiment. In the first step, a cell membrane component containing specific 5-HT2A receptor was prepared. A 10 cm dish was used for transfection with 10 ng of the 5-HT2A receptor and 40 μL of PEI. […] A vacuum pump was used to suck off the culture medium, 3 mL of lysis buffer was added to each well, and the cells were placed in a 4° C. freezer for 10 minutes. After the cells were detached, the cells were transferred to a 15 mL centrifuge tube and centrifuged at 1500 rpm for 5 minutes at 4° C., and the supernatant was discarded. The cell pellet was transferred to a tissue homogenizer, and 3 mL of lysis buffer was added and fully ground until the cells were broken. Then, cell suspension was equally divided into several EP tubes, centrifuged at 4° C. and 12000 rpm for 5 min, and the supernatant was discarded. The precipitate was the cell membrane component containing the 5-HT2A receptor. […] First, a standard binding buffer was added to the cell membrane component containing the 5-HT2A receptor, and the cell membrane was disrupted and resuspended with an electric tissue homogenizer. 30 μL of membrane protein suspension was added to each well of a 96-well plate. Then, 30 μL of different drugs were added to the 96-well plate from left to right to ensure that the final drug concentrations were 10^−5 M, 10^−6 M, 10^−7 M, 10^−8 M, 10^−9 M and 0 M, with two replicates per treatment. Next, 30 μL [^3H]-ketanserin was added to each well of the 96-well plate. The plate was incubated for 2 hours at room temperature in the dark. Detection. The machine reading value reflected the amount of [^3H]-ketanserin bound on the membrane, and after further data processing, the affinity Ki value of different compounds for 5-HT2A receptor was obtained.
A general note: In a radioligand displacement assay an active substance lowers the binding of a labelled ligand.

In data set [2] the target is T2, dopamine D2 receptors (Homo sapiens (Human), UniProt P14416). Put plainly: Radioligand competition binding, affinity for dopamine D2 receptors ([3H]-Methylspiperone). The protocol: A 10 cm diameter dish was used for transfection with 10 ng of the dopamine D2 receptors and 40 μL of PEI. After 48 hours, the 10 cm dish was taken out from the cell culture room and the cultured cells had expressed the dopamine D2 receptors. A vacuum pump was used to suck off the culture medium, 3 mL of lysis buffer (50 mM Tris hydrochloric acid buffer, pH 7.4) was added to each well, and the cells were placed in a 4° C. freezer for 10 minutes. After the cells were detached, the cells were transferred to a 15 mL centrifuge tube and centrifuged at 1500 rpm for 5 minutes at 4° C., and the supernatant was discarded. The cell pellet was transferred to a tissue homogenizer, and 3 mL of lysis buffer was added and fully ground until the cells were broken. Then, cell suspension was equally divided into several EP tubes, centrifuged at 4° C. and 12000 rpm for 5 min, and the supernatant was discarded. The precipitate was the cell membrane component containing the dopamine D2 receptors and stored at −80° C.
First, a standard binding buffer (50 mM HEPES, 50 mM NaCl, 5 mM MgCl2, 0.5 mM EDTA, pH 7.4) was added to the cell membrane component containing the dopamine D2 receptors, and the cell membrane was disrupted and resuspended with an electric tissue homogenizer. 30 μL of membrane protein suspension was added to each well of a 96-well plate. Then, 30 μL of different drugs were added to the 96-well plate from left to right to ensure that the final drug concentrations were 10^−5 M, 10^−6 M, 10^−7 M, 10^−8 M, 10^−9 M and 0 M, with two replicates per treatment. Next, 30 μL [^3H]-N-Methylspiperone was added to each well of the 96-well plate, and the plate was incubated for 2 hours at room temperature in the dark. The unbound isotopes were removed by Whatman GF/C filter membrane and vacuum pump, and the isotopes bound to the receptors were detected by MicroBeta isotope liquid scintillation counter.
The affinity of the compounds of the present invention for the dopamine D2 receptors was determined by the method of radioligand competition experiment. In the first step, a cell membrane component containing specific dopamine D2 receptors was prepared. A10 cm dish was used for transfection with 10 ng of the dopamine D2 receptors and 40 μL of PEI. After 48 hours, the 10 cm dish was taken out from the cell culture room and the cultured cells had expressed the dopamine D2 receptors. A vacuum pump was used to suck off the culture medium, 3 mL of lysis buffer was added to each well, and the cells were placed in a 4° C. freezer for 10 minutes. After the cells were detached, the cells were transferred to a 15 mL centrifuge tube and centrifuged at 1500 rpm for 5 minutes at 4° C., and the supernatant was discarded. The cell pellet was transferred to a tissue homogenizer, and 3 mL of lysis buffer was added and fully ground until the cells were broken. Then, cell suspension was equally divided into several EP tubes, centrifuged at 4° C. and 12000 rpm for 5 min, and the supernatant was discarded. The precipitate was the cell membrane component containing the dopamine D2 receptors. […] First, a standard binding buffer was added to the cell membrane component containing the dopamine D2 receptors, and the cell membrane was disrupted and resuspended with an electric tissue homogenizer. 30 μL of membrane protein suspension was added to each well of a 96-well plate. Then, 30 μL of different drugs were added to the 96-well plate from left to right to ensure that the final drug concentrations were 10^−5 M, 10^−6 M, 10^−7 M, 10^−8 M, 10^−9 M and 0 M, with two replicates per treatment. Next, 30 μL [^3H]-Methylspiperone was added to each well of the 96-well plate. The plate was incubated for 2 hours at room temperature in the dark. Detection. The machine reading value reflected the amount of [^3H]-Methylspiperone bound on the membrane, and after further data processing, the affinity Ki value of different compounds for dopamine D2 receptors was obtained.

Data set [3] concerns the target T2, dopamine D2 receptors. Nature of the data set: G protein Gαi1-γ9 dissociation BRET, dopamine D2 receptor functional activity. It counts as cell-based. To be noted: for Emax: read-out: Gai1 BRET Emax % ± SEM. Here is the method:
To examine downstream G protein signaling mediated by dopamine D2 receptors, 6 cm dish was used for transfection with 1μg of dopamine D2 receptors, 1μg of Gαi1 fused to seaweed luciferase (Gαi1-Rluc), 1 μg of Gβ3, 1 μg of Gγ9 fused to green fluorescent protein (Gγ9-GFP) and 16 μL of transfection reagent PEI. […] On the third day, the drugs were added for test.
(§1) To examine downstream G-protein signaling pathway mediated by dopamine D2 receptors, on the first day, 6 cm dish was used for transfection with 1μg of dopamine D2 receptors, 1μg of Gαi1 containing C-terminal seaweed luciferase (GGαi1-Rluc), 1 μg of […], 1 μg of Gγ9 containing C-terminal green fluorescent protein (Gγ9-GFP) and 16 μL of PEI. At the same time, in order to examine the downstream f3-arrestin2 signaling pathway mediated by dopamine D2 receptors, on the first day, 6 cm dish was used for transfection with 500 μg of dopamine D2 receptors containing C-terminal seaweed luciferase (D2-Rluc), 500 μg of G protein-coupled receptor kinase 2 (GRK2), 2500 μg of […] containing N-terminal green fluorescent protein (GFP2-ARRB2) and 14 μL of PEI. The next day, the overgrown cells were digested and plated a 96-well plate at the amount of cells contained in a 6 cm culture dish with overgrown cells, and 100 μL of culture medium was added to each well. On the third day, the drugs were added for test. The 96-well plate was taken out from the cell culture room to remove the culture medium, 40 μL of the substrate coelenterazine 400a (final concentration of 5 μM) was added to each well, and then 20 μL of different drugs were added in turn from left to right to ensure that the final concentration of the drugs decreased gradually from bottom to top, and each treatment was repeated twice. Finally, the prepared samples were loaded on machine for test. The machine reading value reflected the intracellular β-arrestin2 on the membrane and the dissociation of G protein trimer. The former indicated the degree of activation of the β-arrestin2 signaling pathway downstream of the dopamine D2 receptors, and the latter indicated the degree of activation of the G protein signaling pathway downstream of the dopamine D2 receptors.

Data set [4] concerns the target T2, dopamine D2 receptors. Nature of the data set: β-arrestin2 recruitment BRET, dopamine D2 receptor functional activity. It counts as cell-based. The settings on record: for Emax: read-out: β-arrestin2 BRET Emax % ± SEM. The protocol:
To examine the downstream f3-arrestin2 signaling pathway mediated by dopamine D2 receptors, 6 cm dish was used for transfection with 500 […] of dopamine D2 receptors fused to seaweed luciferase (D2-Rluc), 500 μg of G protein-coupled receptor kinase 2 (GRK2), 2500 μg of β-arrestin2 fused to green fluorescent protein (GFP2-ARRB2) and 14 μL of transfection reagent PEI. The next day, the overgrown cells were digested and plated a 96-well plate at the amount of cells contained in a 6 cm culture dish with overgrown cells, and 100 μL of culture medium was added to each well. On the third day, the drugs were added for test.
as §1
(Activated receptors often draw arrestin, which recruitment assays turn into a signal.)

The test system of data set [5] is C57B6 male mice. Nature of the data set: Freezing behavior test. It counts as in vivo. The settings on record: 10 mg/kg. The protocol:
Experimental method: The experimental animals were C57B6 male mice, n=8 in each group. Mice were first injected with different compounds, and after a certain period of time (30 min or 60 min), the mice were in an upright and unnatural state by placing their forelimbs on a high glass hanging rod (about 5 cm from the ground). Then the time for the mice to maintain this state was measured, and the length of time was used to determine the freezing effect of the drug on the mice.

For data set [6], the target named is T1, 5-HT2A receptor. The settings on record: Blair, Drugs, 2020; cited from earlier work.
[7] abbreviates: HEK-293T, I-1 to 19 n=3, I-20 to 27 single determination, read-out: Gai1 BRET EC50.
The mark [8] stands for this setting: HEK-293T, I-1 to 19 n=3, I-20 to 27 single determination, read-out: β-arrestin2 BRET EC50.
Setting [9] is: [3H]-Methylspiperone (0.3-0.5 nM), HEK-293T membranes, I-1 to 19 n=3, I-20 to 27 single determination.
Setting [10] is: relative to the endogenous ligand dopamine.

T1 sequence (P28223 whole entry): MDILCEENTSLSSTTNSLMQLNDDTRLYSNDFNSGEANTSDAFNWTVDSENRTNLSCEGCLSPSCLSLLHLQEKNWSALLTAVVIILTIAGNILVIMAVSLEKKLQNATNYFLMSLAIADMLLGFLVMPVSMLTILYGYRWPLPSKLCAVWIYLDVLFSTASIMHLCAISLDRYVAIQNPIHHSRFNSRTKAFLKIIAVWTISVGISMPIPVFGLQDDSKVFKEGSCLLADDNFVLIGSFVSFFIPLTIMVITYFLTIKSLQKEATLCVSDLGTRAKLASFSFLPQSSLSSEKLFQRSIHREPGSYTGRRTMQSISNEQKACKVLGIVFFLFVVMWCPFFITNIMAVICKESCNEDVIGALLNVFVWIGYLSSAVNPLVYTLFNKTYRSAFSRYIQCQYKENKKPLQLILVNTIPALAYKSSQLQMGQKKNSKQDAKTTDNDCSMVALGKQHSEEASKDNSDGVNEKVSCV
T2 sequence (P14416 whole entry): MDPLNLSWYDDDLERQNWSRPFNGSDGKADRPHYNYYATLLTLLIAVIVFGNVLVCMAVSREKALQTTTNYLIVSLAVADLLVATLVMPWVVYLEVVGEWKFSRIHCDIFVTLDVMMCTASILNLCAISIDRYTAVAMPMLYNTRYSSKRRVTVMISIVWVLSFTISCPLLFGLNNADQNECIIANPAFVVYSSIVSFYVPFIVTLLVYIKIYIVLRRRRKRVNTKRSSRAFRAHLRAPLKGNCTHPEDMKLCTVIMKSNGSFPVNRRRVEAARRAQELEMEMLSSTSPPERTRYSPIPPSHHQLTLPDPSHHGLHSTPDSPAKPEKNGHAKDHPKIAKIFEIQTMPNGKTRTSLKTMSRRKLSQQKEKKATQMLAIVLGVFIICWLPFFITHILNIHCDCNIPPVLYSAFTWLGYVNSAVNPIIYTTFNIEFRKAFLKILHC

For the molecule `O=c1ccc2ccc(OCCCCN3CCN4c5cccc6[nH]cc(c56)CC4C3)cc2[nH]1` (centres unmarked) [Compound I-2, 7-(4(4,6,6a,7,9,10-hexahydro-8H-pyrazino[1,2-a]pyrrolo[4,3,2-de]quinolin-8-yl)butoxy)quinolin-2(1H)-one], the “affinity for 5-HT2A receptor (in words)” value in data set [1] was “very weak affinity”.

For orientation: Ki means the dissociation constant of the complex between target and ligand, obtained from inhibition or displacement. A low value points to higher affinity. In general, Emax refers to the maximal effect, on the per cent scale that the assay sets. As for `CN(C)C(=O)N[C@H]1CC[C@H](CCN2CCN3c4cccc5[nH]cc(c45)CC3C2)CC1` (stereo partly drawn) [Compound I-10, 3-(4-(2-(4,6,6a,7,9,10-hexahydro-8H-pyrazino[1,2-a]pyrrolo[4,3,2-de]quinolin-8-yl)ethyl)trans-cyclohexyl)-1,1-dimethylurea], the “Affinity pKi ± SEM” value in data set [2] is “(7.30 ± 0.08)”. Also, the Ki worked out at 50.6 nM in data set [2] and 2370 nM in data set [1] ([3H]-ketanserin, HEK-293T membranes). Moreover, the EC50 was 3.89 nM in data set [3] (setting [7]) and 6.61 nM in data set [4] (setting [8]). For the same molecule, the Emax was determined as 80% in data set [3] and 84% in data set [4]. Further, the “affinity for 5-HT2A receptor (in words)” value in data set [1] is “very weak affinity”.

In the case of `CN(C)C(=O)N[C@H]1CC[C@H](CCN2CCN3c4cccc5c4c(cn5C)CC3C2)CC1` (stereo partly drawn) [Compound I-19, 1,1-dimethyl-3-(4-(2-(4-methyl-4,6,6a,7,9,10-hexahydro-8H-pyrazino[1,2-a]pyrrolo[4,3,2-de]quinolin-8-yl)ethyl)trans-cyclohexyl)urea], in data set [2] (setting [9]), the affinity corresponds to a Ki of 52.7 nM. For the same molecule, the “Affinity pKi ± SEM” value in data set [2] ([3H]-Methylspiperone (0.3-0.5 nM), HEK-293T membranes, n=3) is listed as “(7.28 ± 0.15)”. Moreover, the EC50 in data set [3] (setting [7]) is 4 nM; in data set [3] (n=3, read-out: Gai1 BRET pEC50 ± SEM (converted)), 4.17 nM; in data set [4] (n=3, read-out: β-arrestin2 BRET pEC50 ± SEM (converted)), 28.8 nM. Besides, the figures for the Emax in data set [3] (setting [10]) and in data set [4] (setting [10]) were 71% and 34%, respectively.

Turning to `Cn1cc2c3c(cccc31)N1CCN(C/C=C/COc3ccc4c(c3)NC(=O)CC4)CC1C2` (centres unmarked) [Compound I-22, (E)-7-((4-(4-methyl-4,6,6a,7,9,10-hexahydro-8H-pyrazino[1,2-a]pyrrolo[4,3,2-de]quinolin-8-yl)-2-buten-1-yl)oxy)-3,4-dihydroquinolin-2(1H)-one], the Ki in data set [2] (setting [9]) was found to be 176 nM. Besides, the values for the EC50 in data set [3] (setting [7]) and in data set [4] (setting [8]) were 38 nM and 91.6 nM, respectively. Moreover, the maximum response (Emax) in data set [3] (setting [10]) was found to be 41%; in data set [4] (setting [10]), 32%.

For `Cn1cc2c3c(cccc31)N1CCN(C/C=C/COc3ccc4ccc(=O)[nH]c4c3)CC1C2` (centres unmarked) [Compound I-23, (E)-7-((4-(4-methyl-4,6,6a,7,9,10-hexahydro-8H-pyrazino[1,2-a]pyrrolo[4,3,2-de]quinolin-8-yl)-2-buten-1-yl)oxy)quinolin-2(1H)-one], the Ki in data set [2] (setting [9]) is 100 nM. Moreover, the EC50 stood at 54.8 nM in data set [3] (setting [7]) and 294 nM in data set [4] (setting [8]). Besides, the Emax was 38% in data set [3] (setting [10]) and 36% in data set [4] (setting [10]).

For the molecule `O=C(CCCN1CCC(O)(c2ccc(Cl)cc2)CC1)c1ccc(F)cc1` [Haloperidol, reference compound], the Freezing time was 61.05 ± 3.239 s in data set [5] (30 minutes after administration) and 53.19 ± 2.443 s in data set [5] (60 minutes after administration).

Take `CN1CCN2c3c(cccc31)[C@@H]1CN(CCCC(=O)c3ccc(F)cc3)CC[C@@H]12` [Lumateperone]: the “affinity for 5-HT2A receptors relative to that for D2 receptors” value in data set [6] is reported as “about 60 times”.
